Two compounds from patent publication US20170342451A1, “BIOSYNTHESIS OF PACLITAXEL INTERMEDIATE” (Board of Trustees of Michigan State University, priority 2012, published 2017) can be followed below.

In one assay the target is T1, TycA (Brevibacillus parabrevis, UniProt P09095).
T1 construct: this wild-type tycA cDNA encoding the A-, T-, and E-domains was subcloned into a pSU18 vector; made in house; host or cells: Escherichia coli BL21(DE3)
T1 sequence (P09095 with tags, fused parts or gaps): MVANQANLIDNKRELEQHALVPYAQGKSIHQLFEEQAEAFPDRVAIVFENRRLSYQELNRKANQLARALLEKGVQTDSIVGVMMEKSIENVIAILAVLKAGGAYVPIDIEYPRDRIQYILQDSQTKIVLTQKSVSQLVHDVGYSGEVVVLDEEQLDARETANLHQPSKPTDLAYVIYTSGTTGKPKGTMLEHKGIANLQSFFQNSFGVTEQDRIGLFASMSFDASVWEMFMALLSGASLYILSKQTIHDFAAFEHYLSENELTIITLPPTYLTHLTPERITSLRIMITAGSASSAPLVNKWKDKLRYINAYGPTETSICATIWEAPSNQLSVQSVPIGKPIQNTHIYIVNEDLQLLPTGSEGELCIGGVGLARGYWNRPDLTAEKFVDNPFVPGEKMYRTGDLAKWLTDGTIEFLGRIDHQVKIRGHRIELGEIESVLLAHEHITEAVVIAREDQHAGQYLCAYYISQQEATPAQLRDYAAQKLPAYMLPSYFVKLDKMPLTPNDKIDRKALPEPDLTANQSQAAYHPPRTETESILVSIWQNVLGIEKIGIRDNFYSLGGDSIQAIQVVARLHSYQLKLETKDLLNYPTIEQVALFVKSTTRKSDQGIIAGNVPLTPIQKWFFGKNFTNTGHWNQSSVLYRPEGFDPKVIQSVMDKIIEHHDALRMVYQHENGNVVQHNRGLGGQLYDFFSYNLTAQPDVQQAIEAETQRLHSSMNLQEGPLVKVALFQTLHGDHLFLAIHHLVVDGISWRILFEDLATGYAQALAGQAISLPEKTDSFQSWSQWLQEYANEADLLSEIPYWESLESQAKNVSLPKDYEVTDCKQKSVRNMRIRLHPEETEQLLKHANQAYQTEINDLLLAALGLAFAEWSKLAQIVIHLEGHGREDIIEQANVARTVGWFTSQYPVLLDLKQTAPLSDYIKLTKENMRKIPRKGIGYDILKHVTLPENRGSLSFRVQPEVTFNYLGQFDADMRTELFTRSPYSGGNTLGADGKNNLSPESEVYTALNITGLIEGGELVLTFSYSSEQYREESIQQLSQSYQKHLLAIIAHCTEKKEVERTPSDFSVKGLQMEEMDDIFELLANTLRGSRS
Briefly: N-acetylcysteamine ligase reaction kinetics, TycA. The class given is biochemical, Brevibacillus brevis. Conditions: NAC with (S)-α-Phe as cosubstrate; for kcat^NAC: TycA with NAC at apparent saturation. On the procedure:
Substrates (S)-α-phenylalanine, (R)-β-phenylalanine, and (2R,3S)-phenylisoserine (each at 1 mM) were separately incubated with TycA or TycA-S563A (20 μg) in the presence of N-acetylcysteamine (NAC; 1 mM), ATP (1 mM), and Mg^2+ (3 mM) to establish steady-state conditions with respect to protein concentration and time at 31° C. Under steady-state conditions, either (S)-phenylalanine, (R)-β-phenylalanine, or (2R,3S)-phenylisoserine at 5, 10, 20, 40, 80, 160, 250, 500, 1000 and 2000 μM was separately incubated with TycA or TycA-S563A (20 μg), ATP (1 mM), Mg^2+ (3 mM), and N-acetylcysteamine (1 mM, ‘NAC’) in duplicate, single stopped-time ([…]) 100 μL assays. The reactions were quenched by acidification to a pH of about 2 (10% formic acid in distilled water). […] The samples were analyzed on a Quattro-Premier Electro-Spray Mass Spectrometer coupled with Acquity® UPLC system fitted with a C18 Ascentis Express column (2.5×50 mm, 2.7 μm) at 30° C. […] In brief, the effluent from the chromatography column was directed to the Quattro Premier ESI mass spectrometer, in MRM scan mode, to quantify the biosynthetic acyl SNAC products. […] A standard curve was used to convert the peak area under the curve of the monitored fragment ion to concentration for each biosynthetic phenylpropionyl SNAC.
(§1) Authentic (5)-α-phenylalanyl, (R/S)-β-phenylalanyl- and (2R,3S)-phenylisoserinyl-SNAC were used to construct the standard curves by correlating the peak area under the curve of the monitored ion to concentration of the standard (at 0.16, 0.32, 0.64, 1.3, 2.5, 5, 10, 20, 40, 80, 160 and 320 μM) using linear regression analysis.
The KM values of TycA and TycA-S563A for N-acetylcysteamine (NAC) was assessed by incubating each enzyme separately with (S)-α-phenylalanine (1 mM), MgCl2 (3 mM), ATP (1 mM), and N-acetylcysteamine at 5, 10, 20, 40, 80, 160, 250, 500, 1000 and 2000 μM at 31° C. for 20 min. […]

The target of another assay is TycA-S563A (Brevibacillus parabrevis, UniProt P09095, S563A). The conditions noted are these: for kcat^NAC: TycA-S563A with NAC at apparent saturation. Here is the method:
Substrates (S)-α-phenylalanine, (R)-β-phenylalanine, and (2R,3S)-phenylisoserine (each at 1 mM) were separately incubated with TycA or TycA-S563A (20 μg) in the presence of N-acetylcysteamine (NAC; 1 mM), ATP (1 mM), and Mg^2+ (3 mM) to establish steady-state conditions with respect to protein concentration and time at 31° C. Under steady-state conditions, either (S)-phenylalanine, (R)-β-phenylalanine, or (2R,3S)-phenylisoserine at 5, 10, 20, 40, 80, 160, 250, 500, 1000 and 2000 μM was separately incubated with TycA or TycA-S563A (20 μg), ATP (1 mM), Mg^2+ (3 mM), and N-acetylcysteamine (1 mM, ‘NAC’) in duplicate, single stopped-time ([…]) 100 μL assays. The reactions were quenched by acidification to a pH of about 2 (10% formic acid in distilled water). (N-Boc)-α-phenylalanyl-SNAC (1 μM) was added as an internal standard when (S)-α-phenylalanine or (2,3)-phenylisoserine was used as the substrate; alternatively, (N-Boc)-β-phenylalanyl-SNAC (1 μM) was added as an internal standard when (R)-β-phenylalanine was used as the substrate (the synthesis is described below). The samples were analyzed on a Quattro-Premier Electro-Spray Mass Spectrometer coupled with Acquity® UPLC system fitted with a C18 Ascentis Express column (2.5×50 mm, 2.7 μm) at 30° C. An aliquot (5 μL) of each sample was loaded onto the column and the analytes were eluted with a solvent gradient of […] 0.05% triethylamine in distilled water (Solvent B) (held at 2.5% Solvent A for […], increased to 100% A over 5 sec with a 2-min hold, and then returned to 2.5% Solvent A over 5 sec with a 50-sec hold) at a flow rate of 0.4 mL/min. In brief, the effluent from the chromatography column was directed to the Quattro Premier ESI mass spectrometer, in MRM scan mode, to quantify the biosynthetic acyl SNAC products. The transition ions derived from the corresponding molecular ions were m/z 120.06, 131.10 and 105.95 for (S)-α-phenylalanyl-SNAC, (R)-β-phenylalanyl-SNAC and (2R,3S)-phenylisoserinyl-SNAC, respectively. A standard curve was used to convert the peak area under the curve of the monitored fragment ion to concentration for each biosynthetic phenylpropionyl SNAC.
as §1
The KM values of TycA and TycA-S563A for N-acetylcysteamine (NAC) was assessed by incubating each enzyme separately with (S)-α-phenylalanine (1 mM), MgCl2 (3 mM), ATP (1 mM), and N-acetylcysteamine at 5, 10, 20, 40, 80, 160, 250, 500, 1000 and 2000 μM at 31° C. for 20 min. The reactions were quenched by acidification to a pH of about 2 (10% formic acid in distilled water), and an internal standard, (N-Boc)-α-phenylalanyl-SNAC (1 μM), was added to each sample to correct for variations of the analyte. The [S-(acyl)-N-(acetyl)]cysteamine (SNAC) thioester products of the enzyme-catalyzed reaction were quantified by a liquid chromatography multiple reaction monitoring (MRM) mass spectrometry technique, and the monitored fragment ion (m/z 120) derived from the SNAC moiety of thioester analyte in the effluent was quantified identically to the procedure described earlier.

Where [1] appears, read: NAC with (S)-α-Phe as cosubstrate.

For `N[C@@H](c1ccccc1)[C@@H](O)C(=O)O` [(2R,3S)-PheIso, (2R,3S)-phenylisoserine], the entries for the “kcat^NAC” value on TycA and on TycA-S563A (setting [1]) were 0.00317 ± 0.00017 s⁻¹ and 0.00517 ± 0.00083 s⁻¹, respectively. Besides, the Michaelis-Menten constant (Km) (commonly the concentration of substrate that gives half-maximal velocity) on TycA (TycA with NAC) is 132 ± 56 µM; at TycA-S563A (TycA-S563A with NAC, NAC with (S)-α-Phe as cosubstrate), 512 ± 43 µM.
Consider `N[C@H](CC(=O)O)c1ccccc1` [(R)-β-Phe, (R)-β-phenylalanine], for which, on TycA, the “kcat^NAC” value is 0.006 ± 0.001 s⁻¹. Also, on TycA-S563A (NAC cosubstrate), the “decrease in turnover, TycA-S563A compared to TycA” value is on record as 15 fold; the “increase in KM, TycA-S563A compared to TycA” value was ~2 fold; the “lower catalytic efficiency of TycA-S563A compared to that of TycA” value is on record as ~30 fold. Also, the “kcat^NAC” value on TycA-S563A (setting [1]) was 0.0004 ± 1.7e-05 s⁻¹.
